Reference: US12421253B2 (Mirati Therapeutics, Inc., priority 2020, dated 2025)
pIC50: −log10 of the molar value.

Experiments:
[1] = biological target: T1, KRas^G12R (Homo sapiens, UniProt P01116, G12R); test: KRas binding assay (TR-FRET displacement of Cy5 labelled tracer)
T1 construct: […]; biotin (biotinylated); purchased Accelegan Inc
Description: (§1) The ability of a compound to bind to KRas was measured using a TR-FRET displacement assay. […] After a 60-minute incubation at room temperature, the reaction was measured using a BMG LABTECH CLARIO star Plus via TR-FRET. […] The POC values were fit to a 4-parameter IC50 equation and the IC50 value reported.

[2] = biological target: T2, KRas^G12V (Homo sapiens, UniProt P01116, G12V); test: as above
T2 construct: […]; biotin (biotinylated); purchased Accelegan Inc
Description: as §1

[3] = biological target: T3, KRas^G12D (Homo sapiens, UniProt P01116, G12D); test: as above
T3 construct: […]; biotin (biotinylated); purchased Accelegan Inc
T3 sequence (P01116 1-169 isoform P01116-2 G12D): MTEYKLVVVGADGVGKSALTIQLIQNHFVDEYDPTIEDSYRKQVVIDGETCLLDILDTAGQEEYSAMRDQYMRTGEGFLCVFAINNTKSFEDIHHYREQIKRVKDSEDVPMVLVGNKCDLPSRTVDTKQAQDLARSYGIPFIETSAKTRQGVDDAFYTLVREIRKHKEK
Description: as §1

[4] = biological target: T4, KRas^G12S (Homo sapiens, UniProt P01116, G12S); test: as above
T4 construct: […]; biotin (biotinylated); purchased Accelegan Inc
T4 sequence (P01116 1-169 isoform P01116-2 G12S): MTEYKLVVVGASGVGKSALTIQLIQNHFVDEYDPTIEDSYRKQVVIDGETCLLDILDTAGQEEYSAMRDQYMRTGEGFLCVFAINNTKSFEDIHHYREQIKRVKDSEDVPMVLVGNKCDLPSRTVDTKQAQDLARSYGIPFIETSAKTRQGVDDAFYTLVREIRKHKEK
Description: as §1

[5] = biological target: T5, KRas^WT (Homo sapiens, UniProt P01116); test: as above
T5 construct: […]; biotin (biotinylated); purchased Accelegan Inc
T5 sequence (P01116 1-169 isoform P01116-2): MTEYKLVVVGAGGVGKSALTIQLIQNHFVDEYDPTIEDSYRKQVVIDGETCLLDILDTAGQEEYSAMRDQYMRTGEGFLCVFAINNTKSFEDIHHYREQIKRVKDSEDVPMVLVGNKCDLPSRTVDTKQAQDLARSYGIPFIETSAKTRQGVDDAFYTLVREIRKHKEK
Description: as §1

[6] = biological target: KRas^G13D (Homo sapiens, UniProt P01116, G13D); test: biochemical
Chain of KRas^G13D (P01116 1-169 isoform P01116-2 G13D): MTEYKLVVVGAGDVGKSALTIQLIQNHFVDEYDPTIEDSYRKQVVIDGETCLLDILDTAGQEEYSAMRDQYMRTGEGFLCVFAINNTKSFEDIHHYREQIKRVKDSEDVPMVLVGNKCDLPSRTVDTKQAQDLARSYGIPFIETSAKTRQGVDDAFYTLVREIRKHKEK
Description: as §1

[7] = biological target: KRas^G12C (Homo sapiens, UniProt P01116, G12C); test: biochemical
Chain of KRas^G12C (P01116 1-169 isoform P01116-2 G12C): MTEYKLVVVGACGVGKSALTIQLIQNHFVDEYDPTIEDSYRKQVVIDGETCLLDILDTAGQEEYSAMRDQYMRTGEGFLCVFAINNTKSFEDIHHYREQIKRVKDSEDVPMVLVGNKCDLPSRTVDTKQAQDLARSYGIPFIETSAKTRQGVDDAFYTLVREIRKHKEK
Description: as §1

[8] = biological target: T6, KRas^G12A (Homo sapiens, UniProt P01116, G12A); test: KRas binding assay (TR-FRET displacement of Cy5 labelled tracer)
T6 construct: […]; biotin (biotinylated); purchased Accelegan Inc
T6 sequence (P01116 1-169 isoform P01116-2 G12A): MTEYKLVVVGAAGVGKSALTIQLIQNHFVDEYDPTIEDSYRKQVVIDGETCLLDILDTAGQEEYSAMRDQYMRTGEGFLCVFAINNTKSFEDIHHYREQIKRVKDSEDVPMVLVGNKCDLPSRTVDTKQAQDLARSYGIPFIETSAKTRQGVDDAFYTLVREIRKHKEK
Description: as §1

[9] = biological target: KRas^Q61H (Homo sapiens, UniProt P01116, Q61H); test: biochemical
Chain of KRas^Q61H (P01116 1-169 isoform P01116-2 Q61H): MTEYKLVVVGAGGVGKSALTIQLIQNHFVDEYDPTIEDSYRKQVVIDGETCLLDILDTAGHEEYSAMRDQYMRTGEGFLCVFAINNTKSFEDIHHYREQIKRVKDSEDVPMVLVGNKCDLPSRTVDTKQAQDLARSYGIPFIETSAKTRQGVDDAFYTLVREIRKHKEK
Description: as §1

T2 sequence (P01116 1-169 isoform P01116-2 G12V): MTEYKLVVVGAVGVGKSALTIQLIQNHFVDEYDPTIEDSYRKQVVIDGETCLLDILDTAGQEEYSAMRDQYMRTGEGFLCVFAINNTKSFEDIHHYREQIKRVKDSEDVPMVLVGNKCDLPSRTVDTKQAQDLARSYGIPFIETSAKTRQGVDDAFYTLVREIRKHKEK
T1 sequence (P01116 1-169 isoform P01116-2 G12R): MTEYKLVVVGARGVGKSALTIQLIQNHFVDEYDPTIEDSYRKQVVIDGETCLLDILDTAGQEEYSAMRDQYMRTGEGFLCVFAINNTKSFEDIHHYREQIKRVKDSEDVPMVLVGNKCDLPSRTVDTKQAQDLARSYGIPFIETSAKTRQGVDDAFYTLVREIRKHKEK

SMILES	pIC50 [1]	pIC50 [2]	pIC50 [3]	pIC50 [4]	pIC50 [5]	pIC50 [6]	pIC50 [7]	pIC50 [8]	pIC50 [9]
Oc1cc(N2CCc3c(nc(OC[C@@]45CCCN4C[C@H](F)C5)nc3N3CC4CC(O)CC3C4)C2)c2c(Cl)c(F)ccc2c1 (single isomer, unassigned) [Example 77]	6.78	6.73	6.13						
CCc1cccc2cccc(N3CCc4c(nc(OCC56CCCN5CCC6)nc4N4CCC(O)CC(CO)C4)C3)c12 (single isomer, unassigned) [Example 172, 1-(7-(8-ethylnaphthalen-1-yl)-2-((hexahydro-1H-pyrrolizin-7a-yl)methoxy)-5,6,7,8-tetrahydropyrido[3,4-d]pyrimidin-4-yl)-6-(hydroxymethyl)azepan-4-ol]	6.82	6.82	6.65						
CCc1cccc2cccc(N3CCc4c(nc(OCC56CCCN5CCC6)nc4N4CCC(O)CC(CO)C4)C3)c12 (single isomer, unassigned) [Example 173, 1-(7-(8-ethylnaphthalen-1-yl)-2-((hexahydro-1H-pyrrolizin-7a-yl)methoxy)-5,6,7,8-tetrahydropyrido[3,4-d]pyrimidin-4-yl)-6-(hydroxymethyl)azepan-4-ol]	6.51	6.27	5.94						
CCc1cccc2cccc(N3CCc4c(nc(OCC56CCCN5CCC6)nc4N4CCC(O)CC(CO)C4)C3)c12 (single isomer, unassigned) [Example 174, 1-(7-(8-ethylnaphthalen-1-yl)-2-((hexahydro-1H-pyrrolizin-7a-yl)methoxy)-5,6,7,8-tetrahydropyrido[3,4-d]pyrimidin-4-yl)-6-(hydroxymethyl)azepan-4-ol]	7.62	7.42	6.54						
Oc1cc(N2CCc3c(nc(OC[C@@]45CCCN4C[C@H](F)C5)nc3N3CC4CC(O)CC3C4)C2)c2c(Br)c(F)ccc2c1 (single isomer, unassigned) [Example 214]	7.27	6.93	6.25						
CCc1c(F)ccc2cccc(N3CCc4c(nc(OCC56CCCN5CCC6)nc4N4CCC[C@@](C)(O)C4)C3)c12 [Example 3, (R)-1-(7-(8-ethyl-7-fluoronaphthalen-1-yl)-2-((hexahydro-1H-pyrrolizin-7a-yl)methoxy)-5,6,7,8-tetrahydropyrido[3,4-d]pyrimidin-4-yl)-3-methylpiperidin-3-ol]	7.60	7.77	7.80						
CCc1cccc2cccc(N3CCc4c(nc(OCC56CCCN5CCC6)nc4N4CCCC(C)(O)C4)C3)c12 (stereo not shown) [Example 4, 1-(7-(8-ethylnaphthalen-1-yl)-2-((hexahydro-1H-pyrrolizin-7a-yl)methoxy)-5,6,7,8-tetrahydropyrido[3,4-d]pyrimidin-4-yl)-3-methylpiperidin-3-ol]	6.90	7.05	7.01						
CCc1cccc2cccc(N3CCc4c(nc(OCC56CCCN5CCC6)nc4Nc4cccnc4)C3)c12 [Example 5, 7-(8-ethylnaphthalen-1-yl)-2-((hexahydro-1H-pyrrolizin-7a-yl)methoxy)-N-(pyridin-3-yl)-5,6,7,8-tetrahydropyrido[3,4-d]pyrimidin-4-amine]	5.09	5.12	4.72						
CCc1cccc2cccc(N3CCc4c(nc(OCC56CCCN5CCC6)nc4N4CCOCC(O)C4)C3)c12 (stereo not shown) [Example 6, 4-(7-(8-ethylnaphthalen-1-yl)-2-((tetrahydro-1H-pyrrolizin-7a(5H)-yl)methoxy)-5,6,7,8-tetrahydropyrido[3,4-d]pyrimidin-4-yl)-1,4-oxazepan-6-ol]	7.15	6.93	6.51	7.00	6.98	6.80	7.06	7.07	6.88
CCc1cccc2cccc(N3CCc4c(nc(OCC56CCCN5CCC6)nc4N4CCCC(O)CC4)C3)c12 (stereo not shown) [Example 7, 1-(7-(8-ethylnaphthalen-1-yl)-2-((tetrahydro-1H-pyrrolizin-7a(5H)-yl)methoxy)-5,6,7,8-tetrahydropyrido[3,4-d]pyrimidin-4-yl)azepan-4-ol]	7.30	7.17	6.92	6.97	6.84	6.84	7.05	7.04	6.76
CCc1cccc2cccc(N3CCc4c(nc(OCC56CCCN5CCC6)nc4N4CCCn5nc(CO)cc5C4)C3)c12 [Example 8, (5-(7-(8-ethylnaphthalen-1-yl)-2-((tetrahydro-1H-pyrrolizin-7a(5H)-yl)methoxy)-5,6,7,8-tetrahydropyrido[3,4-d]pyrimidin-4-yl)-5,6,7,8-tetrahydro-4H-pyrazolo[1,5-a][1,4]diazepin-2-yl)methanol]	6.99	6.86	7.37	6.76	6.57	6.20	6.86	6.50	6.25
CCc1cccc2cccc(N3CCc4c(nc(OCC56CCCN5CCC6)nc4N4CCOCC(n5cccn5)C4)C3)c12 (stereo not shown) [Example 9, 4-(7-(8-ethylnaphthalen-1-yl)-2-((tetrahydro-1H-pyrrolizin-7a(5H)-yl)methoxy)-5,6,7,8-tetrahydropyrido[3,4-d]pyrimidin-4-yl)-6-(1H-pyrazol-1-yl)-1,4-oxazepane]	6.77	6.78	6.72	6.81	7.27	7.18	6.94	6.89	7.12
CCc1cccc2cccc(N3CCc4c(nc(OCC56CCCN5CCC6)nc4N4CCCn5nc(N)cc5C4)C3)c12 [Example 10, 5-(7-(8-ethylnaphthalen-1-yl)-2-((tetrahydro-1H-pyrrolizin-7a(5H)-yl)methoxy)-5,6,7,8-tetrahydropyrido[3,4-d]pyrimidin-4-yl)-5,6,7,8-tetrahydro-4H-pyrazolo[1,5-a][1,4]diazepin-2-amine]	7.13	7.09	7.17	7.00	6.77	6.43	7.09	6.77	6.54
CCc1cccc2cccc(N3CCc4c(nc(OCC56CCCN5CCC6)nc4N4CCOCC(CO)C4)C3)c12 (stereo not shown) [Example 37, (4-(7-(8-ethylnaphthalen-1-yl)-2-((hexahydro-1H-pyrrolizin-7a-yl)methoxy)-5,6,7,8-tetrahydropyrido[3,4-d]pyrimidin-4-yl)-1,4-oxazepan-6-yl)methanol]	6.77	6.66	6.32		6.67				
CCc1cccc2cccc(N3CCc4c(nc(OCC56CCCN5CCC6)nc4N4CCCCC(CO)C4)C3)c12 (stereo not shown) [Example 38, (1-(7-(8-ethylnaphthalen-1-yl)-2-((hexahydro-1H-pyrrolizin-7a-yl)methoxy)-5,6,7,8-tetrahydropyrido[3,4-d]pyrimidin-4-yl)azepan-3-yl)methanol]	6.31	6.69	≥ 8.70		6.35				
CCc1cccc2cccc(N3CCc4c(nc(OCC56CCCN5CCC6)nc4N4CCCC(O)C4)C3)c12 (stereo not shown) [Example 43, 1-(7-(8-ethylnaphthalen-1-yl)-2-((hexahydro-1H-pyrrolizin-7a-yl)methoxy)-5,6,7,8-tetrahydropyrido[3,4-d]pyrimidin-4-yl)piperidin-3-ol]	6.70	6.57	6.26				6.57		
CCc1cccc2cccc(N3CCc4c(nc(OCC56CCCN5CCC6)nc4N4CCN(c5ccncn5)CC4)C3)c12 [Example 58, 7-(8-ethylnaphthalen-1-yl)-2-((hexahydro-1H-pyrrolizin-7a-yl)methoxy)-4-(4-(pyrimidin-4-yl)piperazin-1-yl)-5,6,7,8-tetrahydropyrido[3,4-d]pyrimidine]	5.10	5.54	4.70				5.18		
CCc1cccc2cccc(N3CCc4c(nc(OCC56CCCN5CCC6)nc4N4CCCC(c5noc(C(F)(F)F)n5)C4)C3)c12 (stereo not shown) [Example 163, 3-(1-(7-(8-ethylnaphthalen-1-yl)-2-((tetrahydro-1H-pyrrolizin-7a(5H)-yl)methoxy)-5,6,7,8-tetrahydropyrido[3,4-d]pyrimidin-4-yl)piperidin-3-yl)-5-(trifluoromethyl)-1,2,4-oxadiazole]	5.46	5.29	5.15						
CCc1cccc2cccc(N3CCc4c(nc(OCC56CCCN5CCC6)nc4NCCc4ccno4)C3)c12 [Example 169, 7-(8-ethylnaphthalen-1-yl)-N-(2-(isoxazol-5-yl)ethyl)-2-((tetrahydro-1H-pyrrolizin-7a(5H)-yl)methoxy)-5,6,7,8-tetrahydropyrido[3,4-d]pyrimidin-4-amine]	5.29	5.14	5.07						
CCc1cccc2cccc(N3CCc4c(nc(OCC56CCCN5CCC6)nc4NCC4(C)CSC4)C3)c12 [Example 171, 7-(8-ethylnaphthalen-1-yl)-N-((3-methylthietan-3-yl)methyl)-2-((tetrahydro-1H-pyrrolizin-7a(5H)-yl)methoxy)-5,6,7,8-tetrahydropyrido[3,4-d]pyrimidin-4-amine]	5.08	5.06	4.78						
